According to patent US6972319B1, “Pituitary adenylate cyclase activating peptide (PACAP)receptor 3 (R3) agonists and their pharmacological methods of use” (priority 1999, dated 2005):
No end group written: not given here.

Columns and labels:
PACAP-R2 = molecular target: T1, PACAP-R2 (Homo sapiens, UniProt P32241); assay: Cyclic AMP SPA on CHO cells transfected with PACAP-R2; format: cell-based; conditions: cAMP SPA, concentration at which 50% of maximum PACAP27 activity is achieved, NA = no detectable activities, read-out: R2 EC50
T1 construct: expressed in transfected cells; host or cells: CHO cells
T1 sequence (P32241 31-457): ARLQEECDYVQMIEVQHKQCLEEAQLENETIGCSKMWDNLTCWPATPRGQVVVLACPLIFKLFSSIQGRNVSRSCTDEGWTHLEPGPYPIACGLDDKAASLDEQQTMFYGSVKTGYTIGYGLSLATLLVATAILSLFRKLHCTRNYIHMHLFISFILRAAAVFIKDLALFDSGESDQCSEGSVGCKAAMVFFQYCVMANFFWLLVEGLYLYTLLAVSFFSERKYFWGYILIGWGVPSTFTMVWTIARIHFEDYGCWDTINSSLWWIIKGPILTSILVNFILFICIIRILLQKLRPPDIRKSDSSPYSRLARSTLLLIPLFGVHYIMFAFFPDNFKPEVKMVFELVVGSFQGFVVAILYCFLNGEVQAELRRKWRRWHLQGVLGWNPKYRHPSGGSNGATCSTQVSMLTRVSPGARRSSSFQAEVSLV
Procedure, shortened: (§1)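 Potency reflects cyclic AMP accumulation, determined by SPA, after a 15 min, 37 C peptide exposure of CHO cells carrying the human receptor. Values are expressed relative to the maximal PACAP27 effect, with EC50 taken at its 50% level.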

PACAP-R3 = molecular target: T2, PACAP-R3 (Homo sapiens, UniProt P41587); assay: Cyclic AMP SPA on CHO cells expressing PACAP R3; format: cell-based; set-up: expressed in transfected cells; host or cells: CHO cells (Geneticin selection); conditions: for EC50: cAMP SPA, CHO cells transfected with PACAP-R3, concentration at which 50% of maximum PACAP27 activity is achieved, NA = no detectable activities, read-out: R3 EC50; for R3 Selectivity: ratio of EC50 at R2 versus EC50 at R3
T2 sequence (P41587 24-438): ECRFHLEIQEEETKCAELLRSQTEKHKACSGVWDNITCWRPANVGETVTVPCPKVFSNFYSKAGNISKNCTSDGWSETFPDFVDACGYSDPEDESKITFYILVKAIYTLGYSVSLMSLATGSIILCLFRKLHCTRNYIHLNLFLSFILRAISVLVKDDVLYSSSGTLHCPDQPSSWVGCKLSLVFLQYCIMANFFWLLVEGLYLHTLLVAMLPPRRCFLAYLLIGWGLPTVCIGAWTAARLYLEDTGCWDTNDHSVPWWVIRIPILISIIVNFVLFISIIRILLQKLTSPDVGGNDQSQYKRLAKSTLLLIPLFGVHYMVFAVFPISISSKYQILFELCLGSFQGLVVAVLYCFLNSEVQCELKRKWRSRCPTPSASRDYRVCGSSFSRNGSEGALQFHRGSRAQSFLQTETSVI
Procedure, shortened: as §1

Row | Sequence | EC50 (PACAP-R2) [nM] | EC50 (PACAP-R3) [nM] | R3 Selectivity (PACAP-R3)
1 | HSDAVFTDNYTRLRKQMAAKKYLNSIKNTR [Peptide R3P149] | 40 | 0.5 | 80
2 | HSDAVFTDNYTRLRKQMAAKKYLNSIKNVR [Peptide R3P150] | 40 | 0.8 | 50
3 | HSDAVFTDNYTRLRKQMAAKKYLNSILK [Peptide R3P50] | 0.7 | 0.13 | 6
4 | HSDAVFTDNYTRLRKQMAAKKYLNSILN [Peptide R3P47] | 0.7 | 0.12 | 6
5 | HSDAVFTDNYTRLRKQMAAKKYLNSINNKR [Peptide R3P125] | 60 | 2 | 30
6 | HSDAVFTDNYTRLRKQMAAKKYLNSIPNKR [Peptide R3P126] | 200 | 1 | 200
7 | HSDAVFTDNYTRLRKQMAAKKYLNSIPNRI [rR3P179] | 230 | 1.5 | 150
8 | HSDAVFTDNYTRLRKQMAAKKYLNSIQNRI [rR3P184] | 10 | 0.37 | 30
9 | HSDAVFTDNYTRLRKQMAAKKYLNSIRNKR [Peptide R3P128] | 60 | 0.3 | 200
10 | HSDAVFTDNYTRLRKQMAAKKYLNSIRNRI [rR3P189] | 1.3 | 0.04 | 30
11 | HSDAVFTDNYTRLRKQMAAKKYLNSITNKR [Peptide R3P130] | 40 | 1 | 40
12 | HSDAVFTDNYTRLRKQMAAKKYLNSIVNKR [Peptide R3P131] | 20 | 0.3 | 70
13 | HSDAVFTDNYTRLRKQMAAKKYLNSIWNKR [Peptide R3P132] | 10 | 0.2 | 50
14 | HSDAVFTDNYTRLRKQMAAKKYLQSIKNKRY [Peptide R3P69] | 90 | 0.5 | 190
15 | HSDAVFTDNYTRLRKQMAEKKYLNSIKNKR [Peptide R3P99] | 40 | 1 | 40
16 | HSDAVFTDNYTRLRKQMAFKKYLNSIKNKR [Peptide R3P100] | 10 | 0.3 | 30
17 | HSDAVFTDNYTRLRKQMAGKKYLNSIKNKR [Peptide R3P101] | 400 | 1 | 400
18 | HSDAVFTDNYTRLRKQMAGKKYLNSIKNRI [rR3P175] | 400 | 2.2 | 180
19 | HSDAVFTDNYTRLRKQMAGKKYLNSIPNRI [rR3P180] | > 100 | 6.7 | >20
20 | HSDAVFTDNYTRLRKQMAHKKYLNSIKNKR [Peptide R3P102] | 300 | 60 | 5
21 | HSDAVFTDNYTRLRKQMAIKKYLNSIKNKR [Peptide R3P103] | 0.4 | 0.05 | 8
22 | HSDAVFTDNYTRLRKQMAKKKYLNSIKNRI [rR3P176] | 300 | 2 | 150
23 | HSDAVFTDNYTRLRKQMAKKKYLNSIPNRI [rR3P181] | 280 | 5.1 | 50
24 | HSDAVFTDNYTRLRKQMAKKKYLNSIQNRI [rR3P186] | 70 | 1.6 | 44
25 | HSDAVFTDNYTRLRKQMAKKKYLNSIRNRI [rR3P191] | > 200 | 2.7 | >80
26 | HSDAVFTDNYTRLRKQMARKKYLNSIKNKR [Peptide R3P110] | 100 | 0.5 | 200
27 | HSDAVFTDNYTRLRKQMARKKYLNSIKNRI [rR3P177] | 110 | 1.6 | 70
28 | HSDAVFTDNYTRLRKQMARKKYLNSIPNRI [rR3P182] | 280 | 3.2 | 90
